Test results reported in PubChem BioAssay (NCI).
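Five compound concentrations were applied to cells in 96-well plates for 48 hours; endpoints were derived by simple linear interpolation of the resulting dose-response curve. GI50 = concentration required for 50% inhibition of growth. TGI: total growth inhibition.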

Key:
Test in all cases: NCI tumour cell line growth inhibition, 48 h
CAKI-1 renal = system: CAKI-1 renal
K-562 leukemia = system: K-562 leukemia
U251 CNS = system: U251 CNS
SK-OV-3 ovarian = system: SK-OV-3 ovarian
SF-268 CNS = system: SF-268 CNS
M14 melanoma = system: M14 melanoma
MOLT-4 leukemia = system: MOLT-4 leukemia
EKVX NSCLC = system: EKVX NSCLC
SNB-75 CNS = system: SNB-75 CNS
SF-295 CNS = system: SF-295 CNS
BT-549 breast = system: BT-549 breast
UO-31 renal = system: UO-31 renal
CCRF-CEM leukemia = system: CCRF-CEM leukemia
NCI-H226 lung = system: NCI-H226 lung
SK-MEL-2 melanoma = system: SK-MEL-2 melanoma
NCI/ADR-RES ovarian = system: NCI/ADR-RES ovarian
SN12C renal = system: SN12C renal
SW-620 colon = system: SW-620 colon
LOX IMVI melanoma = system: LOX IMVI melanoma
SK-MEL-5 melanoma = system: SK-MEL-5 melanoma
ACHN renal = system: ACHN renal
MDA-MB-231 breast = system: MDA-MB-231 breast
NCI-H23 lung = system: NCI-H23 lung
MDA-MB-435 = system: MDA-MB-435
UACC-257 melanoma = system: UACC-257 melanoma
OVCAR-4 ovarian = system: OVCAR-4 ovarian
TK-10 renal = system: TK-10 renal
IGROV1 ovarian = system: IGROV1 ovarian
T-47D breast = system: T-47D breast
SR leukemia = system: SR leukemia
HT29 colon = system: HT29 colon
SK-MEL-28 melanoma = system: SK-MEL-28 melanoma
HCT-15 colon = system: HCT-15 colon
MDA-MB-468 breast = system: MDA-MB-468 breast
NCI-H460 lung = system: NCI-H460 lung
SF-539 CNS = system: SF-539 CNS
COLO 205 colon = system: COLO 205 colon
PC-3 prostate = system: PC-3 prostate
HCC-2998 colon = system: HCC-2998 colon
OVCAR-8 ovarian = system: OVCAR-8 ovarian
NCI-H522 lung = system: NCI-H522 lung
A549 NSCLC = system: A549 NSCLC
HS 578T breast = system: HS 578T breast
MALME-3M melanoma = system: MALME-3M melanoma
RPMI-8226 leukemia = system: RPMI-8226 leukemia
786-0 renal = system: 786-0 renal
OVCAR-3 ovarian = system: OVCAR-3 ovarian
HOP-92 NSCLC = system: HOP-92 NSCLC
HL-60(TB) leukemia = system: HL-60(TB) leukemia
KM12 colon = system: KM12 colon
A498 renal = system: A498 renal
OVCAR-5 ovarian = system: OVCAR-5 ovarian
UACC-62 melanoma = system: UACC-62 melanoma
RXF 393 renal = system: RXF 393 renal
MCF7 breast = system: MCF7 breast
HOP-62 NSCLC = system: HOP-62 NSCLC
SNB-19 CNS = system: SNB-19 CNS
DU-145 prostate = system: DU-145 prostate
HCT-116 colon = system: HCT-116 colon

O=C1NC(=NC23CC4CC(CC(C4)C2)C3)N/C1=C\c1ccc2ncoc2c1
GI50 (CAKI-1 renal): 0.391 µM | TGI (CAKI-1 renal): > 100 µM | GI50 (K-562 leukemia): 0.589 µM | TGI (K-562 leukemia): > 100 µM | GI50 (U251 CNS): 0.303 µM | TGI (U251 CNS): > 100 µM | GI50 (SK-OV-3 ovarian): 4.04 µM | TGI (SK-OV-3 ovarian): > 100 µM | GI50 (SF-268 CNS): 0.412 µM | TGI (SF-268 CNS): 12.8 µM | GI50 (M14 melanoma): 0.325 µM | TGI (M14 melanoma): > 100 µM | GI50 (MOLT-4 leukemia): 0.281 µM | TGI (MOLT-4 leukemia): > 100 µM | GI50 (EKVX NSCLC): 0.469 µM | TGI (EKVX NSCLC): 4.56 µM | GI50 (SNB-75 CNS): 0.28 µM | TGI (SNB-75 CNS): 1.4 µM | GI50 (SF-295 CNS): 0.487 µM | TGI (SF-295 CNS): > 100 µM | GI50 (BT-549 breast): 0.16 µM | TGI (BT-549 breast): 1.4 µM | GI50 (UO-31 renal): 0.358 µM | GI50 (CCRF-CEM leukemia): 0.267 µM | GI50 (NCI-H226 lung): 0.475 µM | TGI (NCI-H226 lung): > 100 µM | GI50 (SK-MEL-2 melanoma): 0.5 µM | TGI (SK-MEL-2 melanoma): 1.32 µM | GI50 (NCI/ADR-RES ovarian): 0.253 µM | TGI (NCI/ADR-RES ovarian): 1.21 µM | GI50 (SN12C renal): 0.254 µM | TGI (SN12C renal): > 100 µM | GI50 (SW-620 colon): 0.318 µM | TGI (SW-620 colon): > 100 µM | GI50 (LOX IMVI melanoma): 0.239 µM | TGI (LOX IMVI melanoma): > 100 µM | GI50 (SK-MEL-5 melanoma): 0.144 µM | TGI (SK-MEL-5 melanoma): 5.65 µM | GI50 (ACHN renal): 0.21 µM | TGI (ACHN renal): 5.2 µM | GI50 (MDA-MB-231 breast): 0.369 µM | TGI (MDA-MB-231 breast): 8.05 µM | GI50 (NCI-H23 lung): 0.217 µM | TGI (NCI-H23 lung): 1.51 µM | GI50 (MDA-MB-435): 0.613 µM | TGI (MDA-MB-435): > 100 µM | GI50 (UACC-257 melanoma): 0.863 µM | TGI (UACC-257 melanoma): > 34.4 µM | GI50 (OVCAR-4 ovarian): 0.902 µM | TGI (OVCAR-4 ovarian): > 43.3 µM | GI50 (TK-10 renal): 0.737 µM | TGI (TK-10 renal): > 100 µM | GI50 (IGROV1 ovarian): 0.43 µM | TGI (IGROV1 ovarian): > 44.8 µM | GI50 (T-47D breast): 0.427 µM | TGI (T-47D breast): > 100 µM | GI50 (SR leukemia): 0.0451 µM | TGI (SR leukemia): 2.48 µM | GI50 (HT29 colon): 1.52 µM | TGI (HT29 colon): > 100 µM | GI50 (SK-MEL-28 melanoma): 0.333 µM | TGI (SK-MEL-28 melanoma): 1.83 µM | GI50 (HCT-15 colon): 0.24 µM | TGI (HCT-15 colon): > 100 µM | GI50 (MDA-MB-468 breast): 0.169 µM | TGI (MDA-MB-468 breast): 0.548 µM | GI50 (NCI-H460 lung): 0.385 µM | TGI (NCI-H460 lung): > 55.5 µM | GI50 (SF-539 CNS): 0.103 µM | TGI (SF-539 CNS): 0.474 µM | GI50 (COLO 205 colon): 0.405 µM | TGI (COLO 205 colon): 5.91 µM | GI50 (PC-3 prostate): 0.338 µM | TGI (PC-3 prostate): > 100 µM | GI50 (HCC-2998 colon): 0.588 µM | TGI (HCC-2998 colon): 7.53 µM | GI50 (OVCAR-8 ovarian): 0.293 µM | TGI (OVCAR-8 ovarian): > 100 µM | GI50 (NCI-H522 lung): 0.23 µM | TGI (NCI-H522 lung): 5.63 µM | GI50 (A549 NSCLC): 0.283 µM | TGI (A549 NSCLC): > 100 µM | GI50 (HS 578T breast): 0.412 µM | TGI (HS 578T breast): 4.2 µM | GI50 (MALME-3M melanoma): 0.952 µM | TGI (MALME-3M melanoma): 3.71 µM | GI50 (RPMI-8226 leukemia): 0.279 µM | TGI (RPMI-8226 leukemia): 28.5 µM | GI50 (786-0 renal): 0.434 µM | TGI (786-0 renal): > 100 µM | GI50 (OVCAR-3 ovarian): 0.243 µM | TGI (OVCAR-3 ovarian): > 84.3 µM | GI50 (HOP-92 NSCLC): 0.511 µM | TGI (HOP-92 NSCLC): > 91.7 µM | GI50 (HL-60(TB) leukemia): 0.308 µM | TGI (HL-60(TB) leukemia): 2.29 µM | GI50 (KM12 colon): 0.342 µM | TGI (KM12 colon): > 76 µM | GI50 (A498 renal): 0.312 µM | TGI (A498 renal): 0.919 µM | GI50 (OVCAR-5 ovarian): 0.322 µM | TGI (OVCAR-5 ovarian): > 100 µM | GI50 (UACC-62 melanoma): 0.347 µM | TGI (UACC-62 melanoma): 1.39 µM | GI50 (RXF 393 renal): 0.215 µM | TGI (RXF 393 renal): 0.477 µM | GI50 (MCF7 breast): 0.324 µM | TGI (MCF7 breast): > 100 µM | GI50 (HOP-62 NSCLC): 0.413 µM | TGI (HOP-62 NSCLC): > 100 µM | GI50 (SNB-19 CNS): 0.319 µM | TGI (SNB-19 CNS): > 100 µM | GI50 (DU-145 prostate): 0.315 µM | TGI (DU-145 prostate): > 100 µM | GI50 (HCT-116 colon): 0.0993 µM | TGI (HCT-116 colon): > 100 µM
